According to patent US7528140B2, “Substituted pyrrolo[3,2-d]pyrimidines as glycogen synthase kinase (GSK) inhibitors” (Teijin Limited, priority 2002, dated 2009):

The compounds below were run against recombinant human GSK-3β (Homo sapiens, UniProt P49841) (assay: Measurement of GSK-3 enzyme activity inhibition (32P phosphorylation of phospho-glycogen synthase peptide-2)). Conditions: 20 μM ATP, 20 minutes at room temperature, read-out: GSK-3 enzyme inhibiting activity (IC50).
Assay type: biochemical
Protocol: Measurement of GSK-3 Enzyme Activity Inhibition
After adding 25 μL of phospho-glycogen synthase peptide-2 substrate solution [6 μM phospho -glycogen synthase peptide-2, 20 μM ATP, 16 mM MOPS buffer (pH 7.0), 0.2 mM EDTA, 20 mM magnesium acetate, 0.1 μCi [γ-^32P]ATP (specific activity: approximately 110 TBq/mmol)]to 5 μL of the test compound using 5% dimethylsulfoxide as the solvent, reaction was initiated by further addition of 20 μL of a GSK-3β enzyme solution [10 mU recombinant human GSK-3β, 20 mM MOPS buffer (pH 7.0), 1 mM EDTA, 0.1% polyoxyethylene lauryl ether (23 Lauryl Ether; Brij 35), 5% glycerol, 0.1% β-mercaptoethanol]. After conducting the reaction for 20 minutes at room temperature, an equivalent volume of a 200 mM phosphoric acid solution was added to quench the reaction, and 90 μL of the reaction product was adsorbed onto a MultiScreen PH plate (Millipore) and rinsed with a 100 mM phosphoric acid solution. After drying the plate, 30 μL of Micro Scint-O (Packard BioScience) was added, and the cpm was measured with a scintillation counter to determine the inhibiting activity. Phospho GS Peptide2 is […]P)-Glu-Asp-Glu-Glu-Glu (SEQ ID NO:1).

Sequence of recombinant human GSK-3β (P49841 whole entry): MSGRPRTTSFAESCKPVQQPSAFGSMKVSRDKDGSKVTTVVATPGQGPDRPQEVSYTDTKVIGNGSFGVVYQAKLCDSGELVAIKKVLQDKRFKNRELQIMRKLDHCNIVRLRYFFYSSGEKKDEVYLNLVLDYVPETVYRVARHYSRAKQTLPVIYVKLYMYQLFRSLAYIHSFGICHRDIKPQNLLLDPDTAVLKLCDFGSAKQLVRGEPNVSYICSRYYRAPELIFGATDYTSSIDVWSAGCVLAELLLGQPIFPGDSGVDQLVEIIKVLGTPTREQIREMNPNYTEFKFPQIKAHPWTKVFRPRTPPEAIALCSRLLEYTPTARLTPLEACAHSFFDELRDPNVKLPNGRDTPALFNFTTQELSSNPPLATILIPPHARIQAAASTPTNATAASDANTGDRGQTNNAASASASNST

Q: For `Cn1cccc1-c1c(C#N)c2nc[nH]c(=S)c2n1CCN` [1-0459, 5-(2-aminoethyl)-6-(1-methylpyrrol-2-yl)-4-thioxo-3-hydropyrrolo[3,2-d]pyrimidine-7-carbonitrile], which IC50 is on record?
A: Its IC50 is 1000 to 10000 nM.

Q: With `N#Cc1c(-c2ccccc2)n(CCNCc2ccccc2)c2c(=S)[nH]cnc12` [2-1775, 6-phenyl-5-{2-[benzylamino]ethyl}-4-thioxo-3-hydropyrrolo[3,2-d]pyrimidine-7-carbonitrile] as the compound, how does the IC50 read?
A: Its IC50 is 1000 to 10000 nM.

Q: Which IC50 does the source give for `N#Cc1c(-c2ccccc2)n(CCn2c(=O)[nH]c3ccccc3c2=O)c2c(=S)[nH]cnc12` [2-1849, 5-[2-(2,4-dioxo(1,3-dihydroquinazolin-3-yl))ethyl]-6-phenyl-4-thioxo-3-hydropyrrolo[3,2-d]pyrimidine-7-carbonitrile] here?
A: The IC50 was 1000 to 10000 nM.

Q: `CN(CCn1c(-c2ccccc2)c(C#N)c2nc[nH]c(=S)c21)C(=O)C(F)(F)F` [2-1855] was tested. Which IC50 did it give?
A: Its IC50 is 30 to 100 nM.

Q: `CCOCCn1c(-c2ccccc2)c(C#N)c2nc[nH]c(=S)c21` [1-0215] was tested. Which IC50 did it give?
A: Its IC50 is 1000 to 10000 nM.

Q: How did the IC50 turn out when `CC(C)CCn1c(-c2ccccc2)c(C#N)c2nc[nH]c(=S)c21` [1-0114] was run?
A: Its IC50 is 1000 to 10000 nM.

Q: How did the IC50 turn out when `Cc1ccoc1-c1c(C#N)c2nc[nH]c(=S)c2n1CCNC(=O)C(F)(F)F` [2-0601, N-{2-[7-cyano-6-(3-methyl(2-furyl))-4-thioxo(3-hydropyrrolo[3,2-d]pyrimidin-5-yl)]ethyl}-2,2,2-trifluoroacetamide] was run?
A: The IC50 was 10 to 30 nM.

Q: For `CCCCCn1c(-c2ccccc2)c(C#N)c2nc[nH]c(=O)c21` [1-0132], which IC50 is on record?
A: Its IC50 is 1000 to 10000 nM.

Q: With `N#Cc1c(-c2ccccc2)n(CCCOC(=O)c2ccco2)c2c(=O)[nH]cnc12` [2-0530] as the compound, how does the IC50 read?
A: Its IC50 is 1000 to 10000 nM.

Q: `N#Cc1c(-c2ccccc2)n(CC2CC2)c2c(=S)[nH]cnc12` [1-0275] was tested. Which IC50 did it give?
A: The IC50 was 1000 to 10000 nM.

Q: Which IC50 does the source give for `N#Cc1c(N2CCCC2)n(CCNC(=O)c2ccc(F)cc2)c2c(=S)[nH]cnc12` [6-1031, N-[2-(7-cyano-6-pyrrolidinyl-4-thioxo(3-hydropyrrolo[3,2-d]pyrimidin-5-yl))ethyl](4-fluorophenyl)carboxamide] here?
A: The IC50 was 30 to 100 nM.

Q: `N#Cc1c(-c2ccccc2Br)[nH]c2c(=S)[nH]cnc12` [1-0751, 6-(2-bromophenyl)-4-thioxo-3-hydropyrrolo[3,2-d]pyrimidine-7-carbonitrile] was tested. Which IC50 did it give?
A: The IC50 was 30 to 100 nM.

Q: Which IC50 does the source give for `Cc1c(C#N)c2nc[nH]c(=S)c2n1CCCc1ccccc1` [1-0323] here?
A: The IC50 was 1000 to 10000 nM.

Q: With `N#Cc1c(-c2ccccc2)n(CCc2ccccc2)c2c(=S)[nH]cnc12` [1-0312] as the compound, how does the IC50 read?
A: The IC50 was 1000 to 10000 nM.

Q: `N#Cc1c(-c2ccccc2)n(CCCc2ccccc2)c2c(=O)[nH]cnc12` [1-0320] was tested. Which IC50 did it give?
A: The IC50 was 1000 to 10000 nM.

Q: How did the IC50 turn out when `N#Cc1c(-c2ccccc2)n(CCCOc2ccccc2)c2c(=S)[nH]cnc12` [1-0537] was run?
A: The IC50 was 1000 to 10000 nM.

Q: For `N#Cc1c(-c2ccccc2)n(CCC(=O)N2CCCC2)c2c(=S)[nH]cnc12` [3-0148], which IC50 is on record?
A: The IC50 was 30 to 100 nM.

Q: With `N#Cc1c(-c2cccc(C(=O)O)c2)[nH]c2c(=S)[nH]cnc12` [1-0687, 3-(7-cyano-4-thioxo-3-hydropyrrolo[4,5-d]pyrimidin-6-yl)benzoic acid] as the compound, how does the IC50 read?
A: The IC50 was 1000 to 10000 nM.

Q: With `N#Cc1c(-c2ccccc2)n(CCNC(=O)Nc2cccc(C(=O)O)c2)c2c(=S)[nH]cnc12` [2-1777, 3-({N-[2-(7-cyano-6-phenyl-4-thioxo-3-hydropyrrolo[3,2-d]pyrimidin-5-yl)ethyl]carbamoyl}amino)benzoic acid] as the compound, how does the IC50 read?
A: The IC50 was 30 to 100 nM.

Q: Which IC50 does the source give for `N#Cc1c(C2CC2)n(CCC(=O)O)c2c(=S)[nH]cnc12` [4-0092, 3-(7-cyano-6-cyclopropyl-4-thioxo-3-hydropyrrolo[3,2-d]pyrimidin-5-yl)propanoic acid] here?
A: Its IC50 is 10 to 30 nM.

Q: For `N#Cc1c(-c2cccc(O)c2)[nH]c2c(=S)[nH]cnc12` [1-0698, 6-(3-hydroxyphenyl)-4-thioxo-3-hydropyrrolo[3,2-d]pyrimidine-7-carbonitrile], which IC50 is on record?
A: Its IC50 is 10 to 30 nM.

Q: Which IC50 does the source give for `COCCn1c(-c2ccccc2)c(C#N)c2nc[nH]c(=S)c21` [1-0208] here?
A: Its IC50 is 1000 to 10000 nM.

Q: `CCNC(=O)CCn1c(-c2ccccc2)c(C#N)c2nc[nH]c(=S)c21` [3-1792] was tested. Which IC50 did it give?
A: Its IC50 is 30 to 100 nM.

Q: `N#Cc1c(-c2ccccc2Br)[nH]c2c(=O)[nH]cnc12` [1-1040, 6-(2-bromophenyl)-4-oxo-3-hydropyrrolo[3,2-d]pyrimidine-7-carbonitrile] was tested. Which IC50 did it give?
A: The IC50 was 1000 to 10000 nM.
